Source: patent publication US7238527B2, “Methods and compositions for rapid in vitro propagation of Swertia chirata” (priority 2001, dated 2007)

Test system: Swertia chirata shoots
Experiment: Rooting of excised four-week shoots on modified MS with auxins (Example 3)
Format: cell-based
Conditions: for Rooting %: agar 0.8%
Procedure: The effect of various auxins on rooting percent and duration may be studied using four-week shoots obtained in the preceding section.
The excised shoot may be transferred to modified MS basal culture medium with varied concentrations of several auxins selected from a group comprising IAA, IBA, and NAA as shown in Table 3.
In this experiment there are 3 treatments of auxin IAA, IBA and NAA using various levels (1–5 mg/L) supplemented to modified MS media, Supporting system Agar (0.8%).
Four weeks long shoot achieved in experiment 2 were excised and transferred to above referred medium

For indole butyric acid [IBA], the Time to rooting (1.0 to 5.0 mg/L auxin in modified MS basal culture medium) was “about 8 weeks”, the “Rooting (wks)” value (auxin 1 mg/L in modified MS) was 8 wks and the Rooting % (auxin 1 mg/L in modified MS) was 60%. The “Rooting (wks)” value (auxin 2 mg/L in modified MS) was 8 wks, the Rooting % (auxin 2 mg/L in modified MS) was 62% and the “Rooting (wks)” value (auxin 5 mg/L in modified MS) was 8 wks. For the same substance, the Rooting % (auxin 5 mg/L in modified MS) was 60% and the Root morphology (in words) was “white colored, thick, and short”.
